A word on the IC50: it is the concentration needed to halve the response being measured.

The test system of experiment [1] is SV40-transformed human fibroblasts (WI-38 VA13). As to the kind of experiment: Detachment, apoptotic nuclear changes and PARP cleavage in SV40-transformed fibroblasts. In kind it is cell-based. The protocol:
(§1) c. Treatment of cells with MCP inhibitor. Cells were treated with a specified MCP Inhibitor, a standard anticancer agent (etoposide or cisplatin), or DMSO (vehicle). During this process, morphological changes and cellular detachment (for attached cell lines) were monitored. At each time point, cells were harvested, and used for measurement of apoptosis and other biochemical events. In Example 1, infra, involving YVAD-CMK, Compound A was first added to Jurkat T cells. This was followed immediately by dividing the cells into multiple tissue culture flasks. YVAD-CMK was then added to an indicated concentration.
(§2) d. Flow cytometry nuclear staining and DNA fragmentation assays. DNA content analysis using flow cytometry was performed as described previously (Nicoletti, I., et al. J. Immunol. Methods 139:271-279, 1992). To assay nuclear morphology, cells were washed with PBS, fixed with 70% ethanol for 1 h, and stained with Hoechst 33258 (1 mM) for 30 min. The nuclear morphology of cells was visualized by fluorescence microscope (OLYMPUS BH2). DNA fragmentation was assayed as described previously (Grant, S., et al. Cancer Res. 52:6270-6278, 1992).
(§3) e. Whole cell extracts and western blot assay. To prepare whole cell extracts, cells were washed with PBS, and homogenized in lysis buffer (50 mM Tris, pH 8.0, 5 mM EDTA, 150 mM NaCl, 0.5% Nonidet P-40, 0.5 mM PMSF and 0.5 mM dithiothreitol). Following 30 min rocking at 4° C., the lysates were centrifuged and the supernatants were collected as whole cell extracts. The protein samples were then analyzed by sodium dodecyl sulfate-6% polyacrylamide gel electrophoresis (20-60 μg protein per lane) followed by the enhanced chemiluminescence Western blot assay using specific antibodies to CPP32, PARP, p21, p27 or RB.
Whether Compound A has, any selectivity in induction of apoptosis between transformed and normal cells was investigated. Normal human fibroblast cell line (WI-38) and its SV40-transformed derivative (WI-38 VA13) were utilized. […]

The test system of experiment [2] is p21 and p27 in normal WI-38 fibroblasts. Nature of the experiment: Western blot of p21 and p27 levels in normal WI-38 fibroblasts. As to conditions: normal WI-38, 10 μM, 22 hours. In kind it is cell-based, human. As to the method: as §3
The accumulation of p21 and p27 following treatment with Compound A was also evaluated in SV-40 transformed and normal WI-38 fibroblasts.
In general terms: In western blotting, separated proteins are transferred to a membrane and probed.

Experiment [3] deals with PARP, RB and caspase-3 cleavage in Jurkat T cells. Nature of the experiment: Western blot of caspase-3, PARP and RB in Jurkat T cells. In kind it is cell-based, human. As to the method: as §3
(§4) Example 1 was designed to determine if MCP is involved in the survival signaling pathway(s) and if inhibition of MCP activity induces apoptosis. Human Jurkat T cells were treated with 30 μM Compound A for 4 h. […] Both the p112 and p115 forms of RB as p112-115/RB were combined and used as an apoptosis marker.
The ability of these three MCP inhibitors to induce changes in PARP and RB proteins in a parallel experiment was also investigated. […] This rank corresponded exactly to that of the three compounds for inhibition of the chymotrypsin-like activity in isolated proteasomes (Iqbal, M., et al. J. Med Chem. 38: 2276-2277, 1995; Iqbal, M., et al. Bioorg. Med. Chem. Lett. 6: 287-290, 1996) and in intact murine B cells (Harding, C. V., et al. J Immuno. 155: 1767-1775, 1995).

Experiment [4] relates to Jurkat Human T Cell Leukemia Line. Nature of the experiment: Jurkat cell viability assay (XTT reduction). In kind it is cell-based. As to conditions: Jurkat cells, 24 hours, viability by XTT reduction, read-out: Toxicity (IC50). As to the method:
f. Cell viability assay. Jurkat cells were treated with MCP inhibitors or vehicle for 30 min. at 37° C. Next, ionomycin (1 μM) and the phorbol ester PMA (10 ng/ml) were added, together with 0.2% ethanol. After 24 h, cell viability was assessed by reduction of XTT (Sigma, X4251). To each well, 50 μl of XTT (1 mg/ml) and 25 μl PMS (Sigma 9625, 5 mM) were added. After 3 h at 37° C., the OD of each well was read at 450 nm/690 nm by a plate reader.
The rank-order potency for Jurkat cell killing precisely matched the order for MCP inhibition (Table 2, below).
(Formazan colour is commonly taken as a measure of viable cells.)

The test system of another experiment is human Jurkat T cells. As to the kind of experiment: Apoptosis in Jurkat T cells (flow cytometry sub-G1 DNA content, DNA fragmentation). As to conditions: Jurkat T cells. In kind it is cell-based. As to the method:
as §1, §2, §4
When human Jurkat T cells were treated with 15 μM Compound A for 8 h, there was a 23% increase in the apoptotic population with sub-G1 DNA content (FIG. 2, panels b vs. a). By comparison, when Compound B was used, only an 8%-increase in sub-G1 population was detected (FIG. 2, panels c vs. a).
In general terms: In flow cytometry, cells or beads pass a laser one at a time.

For experiment [5], the system named is Human prostate cancer PC-3 cells. Nature of the experiment: Detachment and apoptotic nuclear changes in PC-3 cells. In kind it is cell-based. As to conditions: PC-3, 10 μM, 36 h. The protocol: as §1, §2
Human prostate cancer PC-3 cells were treated with 10 μM Compound A, etoposide, or an equal percentage of vehicle (DMSO), followed by separation of the attached and detached cell populations. Both attached and detached cell populations were then used for detection of apoptotic nuclear changes. After 36 h treatment with Compound A, ˜50% of PC-3 cells became detached.

In experiment [6] the test system is human breast cancer MDA-MB-231 cells. Nature of the experiment: Detachment and apoptotic nuclear changes in MDA-MB-231 cells. In kind it is cell-based. As to conditions: MDA-MB-231, 24 h. The protocol:
as §1, §2
Detachment was also found in at least half of human breast cancer MDA-MB-231 and MCF-7 cells, after exposure to Compound A for 24 h.

Experiment [7] deals with p21 and p27 in human breast cancer MDA-MB-231 cells. As to the kind of experiment: Western blot of p21 and p27 levels in MDA-MB-231 cells. In kind it is cell-based. The settings on record: MDA-MB-231, 15 μM, 6 hours. As to the method:
as §3
Additionally, a band of 70 kDa whih may represent ubiquinated p70 was also observed. In contrast, etoposide caused only limited accumulation of p21 (≦4-fold) and p27 (≦2-fold) at 17 hours when used at concentrations up to 100 μM.

Experiment [8] has as its system glioblastoma cell line SNB-19. As to the kind of experiment: Detachment and apoptosis in SNB-19 cells. In kind it is cell-based, human. As to the method: as §1, §2
In experiment [9] the test system is oral aquamous carcinoma cell line SCC-25. Nature of the experiment: Detachment and apoptosis in SCC-25 cells. In kind it is cell-based, human. As to the method: as §1, §2

Molecules are shown by their SMILES.

Turning to `CC(C)C[C@@H](C=O)NC(=O)[C@@H](CCCNC(=N)N[N+](=O)[O-])NC(=O)C(CCCCCCCCN1C(=O)c2ccccc2C1=O)C1CCCC1` (stereo partly drawn) [Compound A], the PARP cleavage result in experiment [1] (SV40-transformed WI-38, total cell population) was “observed only in the transformed”. Moreover, the “Detachment and apoptotic nuclear changes” value in experiment [1] (WI-38 VA13, 10 μM, up to 22 h) is listed as “induced a detachment in the majority of SV40-transformed cells”. Moreover, the p27 levels entry in experiment [2] is “increased only slightly”. In experiment [3] (Jurkat T cells, 15 μM, time course up to 24 h), the “Production of p85/PARP and p112-115/RB” value was “production of p85/PARP and p 112-115/RB were observed after 2 h”. In experiment [3] (Jurkat T cells, 30 μM, 4 h), the “Cleavage of PARP to p85 and RB to p68” value was “induced cleavage of PARP to a p85 fragment”; the “Processing of caspase-3” value is “induced processing of caspase-3”. The “Cleavage of PARP” value in experiment [3] (Jurkat cells, 30 μM, 3-4 h) is “complete cleavage of PARP”. The IC50 in experiment [4] stood at 500 nM. The “Increase in the apoptotic population with sub-G1 DNA content” value in the experiment with human Jurkat T cells (15 μM, 8 h) was found to be 23%. The “Induction of apoptosis (sub-G1 DNA content, nuclear condensation/fragmentation, internucleosomal DNA fragmentation)” value in the experiment on human Jurkat T cells (30 μM, 4 h) was “apoptosis occurred”. Besides, in [5], the Detached cells was roughly 50%; the “Nuclear morphology (apoptotic condensation and fragmentation)” value is “All the detached PC-3 cells exhibited typical apoptotic nuclear condensation and fragmentation”. Besides, in [6], the “Apoptosis by nuclear staining” value is “apoptotic morphology in all of the detached and most of the attached cells”; the Detached cells entry is reported as “at least half”. For the same molecule, in [7], the “Increase in level of p21” value is recorded as 45 fold and the “Levels of p27” value is reported as “slightly increased”. In addition, in [8], the “Induction of cellular detachment and apoptosis” value was “induced cellular detachment and apoptosis”. Besides, the “Induction of cellular detachment and apoptosis” value in experiment [9] is “induced cellular detachment and apoptosis”.

These data come from patent US20010012854A1, “MULTICATALYTIC PROTEASE INHIBITORS FOR USE AS ANTI-TUMOR AGENTS” (priority 1997, published 2001).
